Measurements reported in ChEMBL document CHEMBL3301555, “MMV Malaria Box screening in pLDH viability assay against Plasmodium falciparum gametocytes”.

How the values were obtained:
Plasmodium falciparum [1] = test: (§1) MMV: Measure of pLDH activity as indication of parasite viability. Gametocytogenesis of 3D7 Plasmodium falciparum strain was induced in vitro and asexual parasites were depleted with N-acetylglucosamine. Gametocytes were treated with dihydroartemisinin, epoxomicin, methylene blue, primaquine, puromycin or chloroquine in 96-well plates and the pLDH activity was evaluated using a modified Makler protocol. Mosquito infectivity was measured by the standard membrane feeding assay. The IC50 value was extrapolated as the concentration that induced a 50% inhibition of gametocyte viability.; type: functional, organism-based
Plasmodium falciparum [2] = test: as §1, with “assay.” for “assay. The IC50 value was extrapolated as the concentration that induced a 50% inhibition of gametocyte viability.”; type: functional; set-up: concentration or dose not given beside the values

| Compound | IC50 (Plasmodium falciparum [1]) [µM] | Growth Inhibition (Plasmodium falciparum [2]) [%] |
| --- | --- | --- |
| COC(=O)c1ccc(C2C3=C(O)CC(c4ccc(F)cc4)CC3=Nc3ccccc3N2C(=O)c2ccccc2)cc1 (centres undefined) | 6.52 | 56.5126 |
| CN(C)c1ccc(C(O)(c2ccc(N(C)C)cc2)c2ccc(N(C)C)cc2)cc1 [METHYLROSANILINE] | 0.158 | 76.3425 |
